Data published in ChEMBL document CHEMBL4138135, “Optimization of physicochemical properties for 4-anilinoquinazoline inhibitors of trypanosome proliferation” (Eur J Med Chem, 2017).

Key:
[1] = Distribution coefficient, log D of the compound at pH 7.4; format: physicochemical; conditions: octanol/water
[2] = Lipophilicity, log P of the compound; format: physicochemical; conditions: octanol/water

O=C(CN1CCOCC1)Nc1ccc2ncnc(Nc3ccc(OCc4cccc(F)c4)c(Cl)c3)c2c1
logD ([1]; read-out: logD): 4.5
logP ([2]; read-out: logP): 4.7

c1cc(-c2ccc3ncnc(Nc4cccnn4)c3c2)cc(N2CCOCC2)c1
logD ([1]; read-out: logD): 3
logP ([2]; read-out: logP): 3.4

c1cc(-c2ccc3ncnc(Nc4ncco4)c3c2)cc(N2CCOCC2)c1
logP ([2]; read-out: logP): 3.6

Cc1cnnc(Nc2ncnc3ccc(-c4cccc(N5CCOCC5)c4)cc23)c1
logP ([2]; read-out: logP): 3.9

COc1ccc(Nc2ncnc3ccc(-c4cccc(N5CCOCC5)c4)cc23)cc1Cl
logP ([2]; read-out: logP): 5.4

c1cc(-c2ccc3ncnc(Nc4ccncn4)c3c2)cc(N2CCOCC2)c1
logD ([1]; read-out: logD): 3.1
logP ([2]; read-out: logP): 3.7

c1cc(-c2ccc3ncnc(Nc4ccnnc4)c3c2)cc(N2CCOCC2)c1
logD [1]: 3.1
logP [2]: 2.8

CC(=O)Nc1cccnc1Nc1ncnc2ccc(-c3cccc(N4CCOCC4)c3)cc12
logD ([1]; read-out: logD): 3.2
logP ([2]; read-out: logP): 3.6

O=c1nc(Nc2ncnc3ccc(-c4cccc(N5CCOCC5)c4)cc23)c(F)c[nH]1
logD ([1]; read-out: logD): 2.2
logP ([2]; read-out: logP): 2.7

CCn1nccc1Nc1ncnc2ccc(-c3cccc(N4CCOCC4)c3)cc12
logD ([1]; read-out: logD): 3.2
logP ([2]; read-out: logP): 3.9

Nc1ncccc1Nc1ncnc2ccc(-c3cccc(N4CCOCC4)c3)cc12
logD ([1]; read-out: logD): 2.9
logP ([2]; read-out: logP): 3.5

c1cc(-c2ccc3ncnc(Nc4cnccn4)c3c2)cc(N2CCOCC2)c1
logD ([1]; read-out: logD): 3.1
logP ([2]; read-out: logP): 3.2

c1cc(-c2ccc3ncnc(Nc4cncnc4)c3c2)cc(N2CCOCC2)c1
logD ([1]; read-out: logD): 3.2
logP ([2]; read-out: logP): 3.1

c1ccc(Nc2ncnc3ccc(-c4cccc(N5CCOCC5)c4)cc23)nc1
logD ([1]; read-out: logD): 3.9
logP ([2]; read-out: logP): 4.4

c1cc(-c2ccc3ncnc(Nc4nncs4)c3c2)cc(N2CCOCC2)c1
logP ([2]; read-out: logP): 3.5

c1cnc(Nc2ncnc3ccc(-c4cccc(N5CCOCC5)c4)cc23)nc1
logD ([1]; read-out: logD): 2.5
logP ([2]; read-out: logP): 3.8

c1cc(Nc2ncnc3ccc(-c4nccc(N5CCOCC5)n4)cc23)ccn1
logD [1]: 3.4
logP [2]: 3

Cc1ccnc(Nc2ncnc3ccc(-c4cccc(N5CCOCC5)c4)cc23)n1
logD ([1]; read-out: logD): 2.9
logP ([2]; read-out: logP): 3.9

c1cnc(Nc2ncnc3ccc(-c4nccc(N5CCOCC5)n4)cc23)nc1
logD ([1]; read-out: logD): 2
logP ([2]; read-out: logP): 2.9

Nc1cccnc1Nc1ncnc2ccc(-c3cccc(N4CCOCC4)c3)cc12
logD ([1]; read-out: logD): 2.8
logP ([2]; read-out: logP): 3.5

Fc1cccc(COc2ccc(Nc3ncnc4ccc(-c5nccc(N6CCOCC6)n5)cc34)cc2Cl)c1
logP ([2]; read-out: logP): 6.5

c1cc(-c2ccc3ncnc(Nc4nccnn4)c3c2)cc(N2CCOCC2)c1
logP ([2]; read-out: logP): 2.8

Fc1cccc(COc2ccc(Nc3ncnc4ccc(-c5ccnc(N6CCOCC6)n5)cc34)cc2Cl)c1
logP ([2]; read-out: logP): 6.5

c1cc(-c2ccc3ncnc(Nc4ccncc4)c3c2)cc(N2CCOCC2)c1
logD ([1]; read-out: logD): 4.1
logP ([2]; read-out: logP): 3.8

O=c1nc(Nc2ncnc3ccc(-c4cccc(N5CCOCC5)c4)cc23)cc[nH]1
logP ([2]; read-out: logP): 2.5

c1cnc(Nc2ncnc3ccc(-c4ccnc(N5CCOCC5)n4)cc23)nc1
logD ([1]; read-out: logD): 2.5
logP ([2]; read-out: logP): 2.9

c1cc(-c2ccc3ncnc(Nc4nccs4)c3c2)cc(N2CCOCC2)c1
logP ([2]; read-out: logP): 4.3

c1cc(Nc2ncnc3ccc(-c4ccnc(N5CCOCC5)n4)cc23)ccn1
logD [1]: 3.8
logP [2]: 2.9

c1cncc(Nc2ncnc3ccc(-c4cccc(N5CCOCC5)c4)cc23)c1
logD ([1]; read-out: logD): 3.9
logP ([2]; read-out: logP): 3.8

Fc1cccc(COc2ccc(Nc3ncnc4ccc(-n5nncc5CN5CCOCC5)cc34)cc2Cl)c1
logP ([2]; read-out: logP): 5.1

Cc1cnc(Nc2ncnc3ccc(-c4cccc(N5CCOCC5)c4)cc23)s1
logP ([2]; read-out: logP): 5

COc1cnc(Nc2ncnc3ccc(-c4cccc(N5CCOCC5)c4)cc23)cn1
logD ([1]; read-out: logD): 3.8
logP ([2]; read-out: logP): 3.6

Cc1nnc(Nc2ncnc3ccc(-c4cccc(N5CCOCC5)c4)cc23)nc1C
logD ([1]; read-out: logD): 2.8
logP ([2]; read-out: logP): 3

Cc1cc(Nc2ncnc3ccc(-c4cccc(N5CCOCC5)c4)cc23)on1
logP ([2]; read-out: logP): 3.6

c1cc(-c2ccc3ncnc(Nc4cncs4)c3c2)cc(N2CCOCC2)c1
logP ([2]; read-out: logP): 3.8

Fc1cccc(COc2ccc(Nc3ncnc4ccc(-c5nnc(N6CCOCC6)[nH]5)cc34)cc2Cl)c1
logP ([2]; read-out: logP): 5.3
